Data on 6 compounds can be found in patent US6630347B1, “Endothelial NOS transgenic animals and methods of use” (The General Hospital Corporation, priority 1996, dated 2003).

Counter-ions that a name gives are not always drawn. Marks after values point to notes of the source that are not given here.

The nature of experiment [1]: Blood pressure responses to L-NA (femoral artery catheterization). Format: in vivo, mice. The method, then: Mice were kept at normal temperature (37° C.), anesthetized with urethane ([…], intraperitoneal injection) or halothane inhalation, and ventilated using an SAR-830 mouse ventilator (CWE Instruments). Depth of anesthesia was adjusted to keep the blood pressure of animals unresponsive to tail-pinch with forceps. End-tidal CO2 was monitored with a microcapnometer and kept constant by adjustment of respiratory parameters. The right femoral artery was cannulated using stretched PE-10 polyethylene tubing (Clay Adams) for mean arterial blood pressure recordings using an ETH-400 transducer and a MacLab data acquisition system (ADI Instruments). For awake measurements, the femoral artery catheter was placed under halothane anesthesia and the wound was covered with 1% xylocane ointment to diminish discomfort. Recordings were made within one hour of the procedure. Data are expressed as means with standard deviation. Statistical evaluation was performed by t-test.
Mean arterial blood pressure (MABP) of urethane-anesthetized wild-type (solid line in FIG. 5) and eNOS mutant mice (dotted line in FIG. 5) were measured by femoral artery catheterization and recorded for 30 minutes of baseline before L-NA administration (arrows in FIG. 5). At time 0, 12 mg/kg of L-NA was given intraperitoneally. […] The blood pressure of eNOS mutant mice dropped from a baseline of 98 mm Hg to 66 mm Hg (n=5). […]

The next experiment concerns NOS binding sites. In words: [3H]L-NG-nitro-arginine autoradiographic binding assay in brain sections. Also noted: species or system mouse. The note with it: for L-NA displaceable [3H]L-NA binding in the presence of D-NA: 10 μM D-NA; for L-NA displaceable [3H]L-NA binding in the presence of 7-NI: 100 μM 7-NI. The method, then:
Mice and rats were sacrificed by decapitation under 2% halothane anesthesia (30% O2+70% N2O). The brains were rapidly removed, immediately frozen in powdered dry ice, and stored at −70° C. Twelve μm sagittal or coronal sections were cut in a cryostat-microtome at −18° C. (Leitz 1720, Leica, Deerfield, Ill., U.S.A.) and thaw-mounted onto gelatin-coated slides (1% gelatin and 0.1% KCr2O). Adjacent sections were stained with cresyl violet and hematoxylin eosin, and stored at −70° C.
The method for the autoradiographic visualization of NOS binding using [^3H]L-NG-Nitro-arginine ([^3H]L-NA) has been described previously. Rutherford et al., (1995). Prior to experiments, sections were brought to −20° C. and then to room temperature. Sections were preincubated for 15 min at room temperature in 50 mM Tris-HCl (pH 7.3) to remove the endogenous ligands and/or modulators, then incubated for 30 min at room temperature in 50 mM Tris-HCl buffer containing 10 μM CaCl2 and 25 nM N^G-nitro-L-[2,3,4,5-H]arginine hydrochloride ([^3H]L-NA, specific activity: 48-57 Ci/mmol, Amersham, Arlington Heights, Ill., U.S.A.). Unlabelled L-N^G-nitro-arginiine (L-NA, Sigma, St. Louis, Mo., U.S.A.), D-N^G-nitro-arginine (D-NA, RBI, Natick, Mass., U.S.A.) and 7-nitroindazole (7-NI, Cookson Chemicals Ltd., England) was added at concentrations of 10, 10, and 100 μM, respectively. The sections were then washed twice for 5 min in ice-cold buffer and rinsed for 10 sec in ice-cold distilled water to eliminate residual buffer. After drying with cold air, the slides were tightly apposed to ^3H-Hyperfilm (Amersham) together with tritiated polymer standards (Amersham) and exposed at −4° C. for 6 weeks.
Films were developed in Kodak D-19 and fixed in Kodak Rapid Fixer, according to the manufacturer's instructions. The optical density of the regions of interest was measured by a computer-assisted image analysis (System M4, Imaging Research, St. Catharines, Ontario, Canada). The relationship between optical density and radioactivity was examined with reference to the tritium standards (Amersham, [^3H]microscale) co-exposed with the tissue sections. […] The densities of NOS binding sites are expressed in fmol bound [^3H]L-NA/mg tissue using the [^3H]L-NA concentration of 25 nM.

A further experiment has as its system pial arterioles. The experiment can be described thus: Pial arteriole diameter during superfusion in closed cranial window. Format: in vivo, mice. The source says:
The mouse head was fixed in a stereotaxic frame and the skull exposed by a longitudinal skin incision. A stainless steel cranial window ring (8.0 mm in inner diameter, 2.0 mm in height) containing three ports was imbedded into a loop of bone wax over the skull. Dental acrylic was then applied. A craniotomy (2×1.5 mm) was made in the left parietal bone within the ring of the window. After dura was opened and the brain surface superfused with artificial cerebrospinal fluid (aCSF), a cover glass was placed to close the window. The volume under the window was approximately 0.1 ml. The composition of aCSF was as follows (in mMol/L): […] The aCSF was superfused by an infusion pump (0.4 ml/min) via a PE-100 tubing connected to a window port. Intracranial pressure was maintained at 5-8 mm Hg. The temperature of aCSF within the windows was maintained at 36.5-37.0° C. Pial vessels were visualized through a cranial window by an intravital microscope (Leitz, Germany) equipped with a video camera ([…], Hamamatsu Photonics, Hamamatsu, Japan). The diameter of a single pial arteriole (20-30 μm) was continuously measured by a video width analyzer ([…], Hamamatsu, Japan) and recorded using the MacLab data acquisition and analysis system. After baseline stabilization, nitro-L-arginine or nitro-D-arginine solution (1 mM) was superfused into the window and the diameter of pial arteriole measured continuously 40 min thereafter.

The test system of another experiment is aortic rings. The experiment can be described thus: Endothelium-dependent relaxation of aortic rings in response to acetylcholine. Also noted: species or system mice. The source says:
The rings were pre-contracted with 10^−7 M norepinephrine and exposed to increasing concentrations of acetylcholine (ACh) from 10^−8 M to 3×10^−5 M. 2-3 segments were collected from each mouse, and five mice were used from the wild-type and eNOS mutant groups. Mean data from each animal were used. Respective tracings are shown. Acetylcholine concentrations are expressed in logM.

For experiment [2] the following is noted: Babbedge et al. (1993); cited from earlier work.
Experiment [3] is described as follows: Cerebral infarct size 24 hrs after middle cerebral artery (MCA) occlusion. The format is in vivo, mice.
Text: Male and female wild-type (SV-129 and C57 Black/6, Taconic Farms, Germantown, N.Y.) and eNOS mutant mice weighing 20 to 26 g were housed under diurnal lighting conditions and allowed free access to food and water ad libitum.
Mice were anesthetized with 2% halothane for induction and maintained on 1% halothane in 70/30% nitrous oxide/oxygen by mask. The right femoral artery was cannulated with PE-10 polyethylene tubing for arterial blood pressure measurement (Gould, Oxnard, Calif.) and blood gas determination (Corning 178, Ciba Corning Diag., Medford, Mass.). Rectal temperature was maintained between 36.5-37.5° C. with a homeothermic blanket system (YSI, Yellow Springs, Ohio).
Focal cerebral ischemia was induced by occlusion of middle cerebral artery (MCA) using the intraluminal filament technique. […] Through a ventral midline incision, the right common and external arteries were isolated and ligated. A microvascular clip (Zen temporary clip, Ohwa Tsusho, Tokyo, Japan) was temporarily placed on the internal artery and the pterygopalatine artery. An 8-0 nylon monofilament (Ethicon, Somerville, N.J.) coated with silicone was introduced through a small incision in the common corotid artery and advanced 10 mm distal to the carotid bifurcation so as to occlude the MCA and posterior communicating artery. The wound was sutured and the animal returned to its cage and allowed free access to water and food.
Twenty-four hours later, animals were sacrificed with an overdoses of pentobarbital and the brains removed and sectioned coronally into five 2-mm slices in a mouse brain matrix. Slices were placed in 2% TTC solution, followed by 10% formalin overnight. […] The infarction area, outlined in white, was measured (Bioquant IV image analysis system) on the posterior surface of each section, and the infarction volume was calculated by summing the infarct volumes of sequential 2 mm thick sections. […]
For experiment [4] the following is noted: eNOS mutant mice; 250 μg/ml in drinking water, daily dose about 750 μg; decrease from 102 mm Hg.
Experimental: The effect of hypertension in vascular injury responses (both filament and cuff models) is measured by repeating the experiments after treating eNOS mutant mice with hydralazine to reduce their blood pressure to normotensive levels.
Experiment [5] is described as follows: Physiological data (blood gases, MABP) before MCA occlusion and after ischemia. Format: in vivo, mice. On the procedure: The right femoral artery was cannulated with PE-10 polyethylene tubing for arterial blood pressure measurement (Gould, Oxnard, Calif.) and blood gas determination (Corning 178, Ciba Corning Diag., Medford, Mass.). Rectal temperature was maintained between 36.5-37.5° C. with a homeothermic blanket system (YSI, Yellow Springs, Ohio). […] The investigator was blinded to the treatment group in this protocol.

The mark [6] stands for this setting: Amygdaloid complex, nNOS mutant.
[7] abbreviates: Cerebellum (molecular layer), SV-129.
Where [8] appears, read: Cerebellum (molecular layer), nNOS mutant.
[9] abbreviates: Hippocampal CA3 subfield, SV-129.
Where [10] appears, read: Hippocampal CA3 subfield, nNOS mutant.

Take `NC(=N[N+](=O)[O-])NCCCC(N)C(=O)O` [D-NA, D-N^G-nitro-arginine]: the “blood pressure effects as seen with L-NA” value in experiment [1] (wild-type and eNOS mutant mice, 12 mg/kg) is reported as “not seen”. Further, the “L-NA displaceable [3H]L-NA binding in the presence of D-NA” value with NOS binding sites (Amygdaloid complex, SV-129) was 64 ± 7.6 fmol/mg tissue; with NOS binding sites (setting [6]), 3 ± 1.7*^,# fmol/mg tissue; in the experiment on NOS binding sites (setting [7]), 59 ± 6.7 fmol/mg tissue; in the experiment on NOS binding sites (setting [8]) it was 0 ± 3.6*^,# fmol/mg tissue; in the experiment with NOS binding sites (Dentate gyrus, SV-129) it was 43 ± 4.8 fmol/mg tissue; in the experiment on NOS binding sites (Dentate gyrus, nNOS mutant), 2 ± 1.9*^,# fmol/mg tissue. In addition, the “L-NA displaceable [3H]L-NA binding in the presence of D-NA” value with NOS binding sites (setting [9]) is 66 ± 5.9 fmol/mg tissue; in the experiment with NOS binding sites (setting [10]), 3 ± 1.9*^,# fmol/mg tissue; with NOS binding sites (Olfactory bulb (granular layer), SV-129), 92 ± 10.8 fmol/mg tissue; with NOS binding sites (Olfactory bulb (granular layer), nNOS mutant), 5 ± 3.0*^,# fmol/mg tissue. In the experiment on pial arterioles (eNOS mutant mice, 1 mM superfusion), the “change in pial diameter” value was “No change”.

Turning to `CC(=O)OCC[N+](C)(C)C` [acetylcholine], the “pre-addition tone present after acetylcholine” value in the experiment with aortic rings (wild-type aortic segments pre-contracted with 10^-7 M norepinephrine, acetylcholine 3×10^-5 M) was 60.3±14.6%.

Take `O=[N+]([O-])c1cccc2cn[nH]c12` [7-NI, 7-nitroindazole]: the “effect on blood pressure” value in experiment [2] is on record as “does not increase blood pressure”. Besides, the “[3H]L-NA binding in the presence of 7-NI” value with NOS binding sites (100 μM, all regions measured, wild-type and eNOS mutant mice) is listed as “significantly decreased”. Also, the “L-NA displaceable [3H]L-NA binding in the presence of 7-NI” value (from here on “L-NA displaceable … of 7-NI”) in the experiment with NOS binding sites (Amygdaloid complex, C57black/6) was 21 ± 4.8 fmol/mg tissue; with NOS binding sites (Amygdaloid complex, SV-129), 21 ± 2.1 fmol/mg tissue; with NOS binding sites (Amygdaloid complex, eNOS mutant) it was 21 ± 2.9 fmol/mg tissue; in the experiment on NOS binding sites (setting [6]), 23 ± 2.5 fmol/mg tissue; in the experiment with NOS binding sites (Cerebellum (molecular layer), C57black/6), 23 ± 5.4 fmol/mg tissue; in the experiment with NOS binding sites (setting [7]), 18 ± 1.3 fmol/mg tissue. In addition, the “L-NA displaceable … of 7-NI” value in the experiment on NOS binding sites (Cerebellum (molecular layer), eNOS mutant) is given as 20 ± 2.2 fmol/mg tissue; in the experiment on NOS binding sites (setting [8]), 24 ± 1.0 fmol/mg tissue; in the experiment with NOS binding sites (Dentate gyrus, C57black/6), 22 ± 4.6 fmol/mg tissue; in the experiment with NOS binding sites (Dentate gyrus, SV-129) it was 18 ± 0.7 fmol/mg tissue; in the experiment on NOS binding sites (Dentate gyrus, eNOS mutant), 20 ± 2.7 fmol/mg tissue; with NOS binding sites (Dentate gyrus, nNOS mutant), 22 ± 1.7 fmol/mg tissue. The “L-NA displaceable … of 7-NI” value in the experiment on NOS binding sites (Hippocampal CA3 subfield, C57black/6) was 22 ± 4.7 fmol/mg tissue; in the experiment with NOS binding sites (setting [9]), 18 ± 1.8 fmol/mg tissue; in the experiment with NOS binding sites (Hippocampal CA3 subfield, eNOS mutant), 21 ± 1.8 fmol/mg tissue; in the experiment on NOS binding sites (setting [10]), 23 ± 2.3 fmol/mg tissue; in the experiment on NOS binding sites (Olfactory bulb (glanular layer), C57black/6), 28 ± 4.1 fmol/mg tissue; in the experiment with NOS binding sites (Olfactory bulb (glanular layer), SV-129), 17 ± 0.7 fmol/mg tissue. In the experiment on NOS binding sites (Olfactory bulb (glanular layer), nNOS mutant), the “L-NA displaceable … of 7-NI” value is 30 ± 2.7 fmol/mg tissue.

Turning to `NNc1nncc2ccccc12` [hydralazine, hydralazine hydrochloride], the “change of infarct size” value in experiment [3] (eNOS mutants made normotensive by hydralazine) is reported as “did not change”. Also, the infarct volume in experiment [3] (protocol 1, eNOS mutant mice made normotensive by hydralazine 1 mg/kg ip 1 hr before and 5, 17 hrs after MCA occlusion, n=10) is on record as 48±7 % of hemisphere. Further, the “mean arterial pressure after hydralazine” value in experiment [4] amounted to 72 mm Hg. For the same compound, the “MABP difference between groups after hydralazine administration” value in experiment [5] (eNOS mutant mice given hydralazine vs wild-type mice) is on record as “did not differ”. Also, the MABP before in experiment [5] (protocol 1, eNOS mutant, hydralazine, 10 min before MCA occlusion) came out at 102 ± 6 mmHg. In experiment [5] (protocol 1, eNOS mutant, hydralazine, 24 hrs after ischemia), this compound displayed an MABP after of 102 mmHg.

As for `N=C(N)NCCC[C@H](N)C(=O)O` [L-arginine], in experiment [1] (200 mg/kg, intraperitoneal), the “effect on the blood pressure responses to L-NA” value is “prevented”.

For the compound `NC(=N[N+](=O)[O-])NCCCC(N)C(=O)O` [L-NA, L-nitroarginine], in experiment [3] (protocol 2, wild-type mice), the “change of lesion size after MCA occlusion” value is recorded as “did not change”. Also, the “density of [3H]L-NA binding sites in the presence of L-NA” value in the experiment with NOS binding sites (10 μM, all brain regions of all mouse strains) was “very low”. In the experiment on aortic rings (wild-type vessel rings, 10^-4 M L-NA for 1 hour), the “acetylcholine-induced relaxation after L-NA treatment” value was “abolished”. The “change in MABP during superfusion” value in the experiment with pial arterioles (1 mM superfusion) is “no change”. Also, the pial vessel diameter result in the experiment on pial arterioles (eNOS mutant mice, 1 mM superfusion for 40 min) is given as “increased”.
